Our source for the IC50 values is patent publication US10005767B2, “Compositions and methods for inhibition of the JAK pathway” (Rigel Pharmaceuticals, Inc., priority 2009, dated 2018).

pIC50: −log10 of the molar value.

One assay concerns human primary T-cells, IL-2 stimulated proliferation (JAK-1 and JAK-3 dependent; reported as JAK3 activity). Put plainly: Human primary T-cell proliferation stimulated by IL-2 (Example 3). Format: cell-based. The settings on record: Homo sapiens, T-cell, tested under conditions described in Example 3 (IL-2 stimulated human primary T-cell proliferation); read-out: ability to inhibit JAK3 activity, IC50 range (Table V). An excerpt:
The activity of the compounds described herein can further be characterized by assaying the effect of the 2,4-pyrimidinediamine compounds described herein on the proliferative response of primary human T-cells. In this assay, primary human T-cells derived from peripheral blood and pre-activated through stimulation of the T-cell receptor and CD28, proliferate in culture in response to the cytokine Interleukin-2 (IL-2). This proliferative response is dependent on the activation of JAK1 and JAK3 tyrosine kinases, which phosphorylate and activate the transcription factor Stat-5. The primary human T-cells are incubated with the 2,4-pyrimidinediamine compounds in the presence of IL-2 for 72 hours, and at the assay endpoint intracellular ATP concentrations are measured to assess cell viability. A reduction in cell proliferation compared to control conditions is indicative of inhibition of the JAK kinase pathway.
Primary human T-cells derived from peripheral blood and pre-activated through stimulation of the T-cell receptor and CD28, proliferate in vitro in response to the cytokine Interleukin-2 (IL-2). This proliferative response is dependent on the activation of JAK-1 and JAK-3 tyrosine kinases, which phosphorylate and activate the transcription factor Stat-5.
Human primary T cells were prepared as follows. […] The lymphocytes at the serum: ficoll interface were recovered and washed twice with 5 volumes of PBS. […] The primary T-cells were stimulated for 3-4 days, then transferred to a fresh flask and maintained in RPMI with 10% FBS and 40 U/mL IL-2.
The day prior to the assay set up, primary T-cells were centrifuged and resuspended in fresh RPMI with 10% FBS but without IL-2 and starved overnight. For the assay, the primary T-cells were centrifuged and resuspended Yssel's medium at 2×10^6 cells/mL. 50 μL of cell suspension containing 80 U/mL IL-2 was added to each well of a flat bottom 96 well black plate. For the unstimulated control, IL-2 was omitted from the last column on the plate. […] 50 μL of 2× compound was added per well in duplicate and the cells were allowed to proliferate for 72 hours at 37° C.
Proliferation was measured using CellTiter-Glo® Luminescent Cell Viability Assay (Promega), which determines the number of viable cells in culture based on quantitation of the ATP present, as an indicator of metabolically active cells. The substrate was thawed and allowed to come to ambient temperature. After mixing the Cell Titer-Glo reagent and diluent together, 100 μL was added to each well. The plates were mixed on an orbital shaker for two minutes to induce lysis and incubated at ambient temperature for an additional ten minutes to allow the signal to equilibrate.
The compound designations in Table V are consistent with those of Tables I-IV above.
Turning to `Cc1cnc(Nc2ccc3c(c2)OCC(=O)N3)nc1Nc1ccc2oc(=O)[nH]c2c1` [IV-32, 7-(5-methyl-4-(2-oxo-2,3-dihydrobenzo[d]oxazol-5-ylamino)pyrimidin-2-ylamino)-2H-benzo[b][1,4]oxazin-3 (4H)-one], the pIC50 (in general, the negative decadic logarithm of the IC50, by convention in mol/L) was more than 6.30.
Still for that read-out and setting: next, `COc1cc(C)cc(Nc2ncc(C)c(Nc3ccc4oc(=O)[nH]c4c3)n2)c1` [Compound I-259, 5-(2-(3-methoxy-5-methylphenylamino)-5-methylpyrimidin-4-ylamino)benzo[d]oxazol-2(3H)-one]: more than 6.30.
Still for that read-out and setting: next, `Cc1cnc(Nc2cccc(S(C)(=O)=O)c2)nc1Nc1cc(F)c2oc(=O)[nH]c2c1` [Compound I-249, 7-fluoro-5-(5-methyl-2-(3-(methylsulfonyl)phenylamino)pyrimidin-4-ylamino)benzo[d]oxazol-2(3H)-one]: more than 6.30.
Same read-out and setting: next, `Cc1cnc(Nc2cccc(Cl)c2)nc1Nc1ccc2oc(=O)[nH]c2c1` [Compound I-173, 5-[2-(3-Chloro-phenylamino)-5-methyl-pyrimidin-4-ylamino]-3H-benzooxazol-2-one]: more than 6.30.
Turning to `Cc1cnc(Nc2cccc(C=O)c2)nc1Nc1ccc2oc(=O)[nH]c2c1` [Compound I-1, N4-(benzo[d]oxazol-2(3H)-on-5-yl)-N2-(3-formylphenyl)-5-methylpyrimidine-2,4-diamine], the pIC50 was 5.30 to 6.30.
Still for that read-out and setting: the figure for `Cc1cnc(Nc2ccc3c(cnn3C)c2)nc1Nc1ccc2oc(=O)[nH]c2c1` [IV-42, 5-methyl-N2-(1-methylindazol-5-yl)-N4-(2-oxo-2,3-dihydro-1,3-benzoxazol-5-yl)-2,4-pyrimidinediamine] is more than 6.30; for `CNC(=O)c1ccc(Nc2ncc(C)c(Nc3ccc4oc(=O)[nH]c4c3)n2)cc1` [Compound I-133, N-Methyl-4-[5-methyl-4-(2-oxo-2,3-dihydro-benzooxazol-5-ylamino)-pyrimidin-2-ylamino]-benzamide] it is more than 6.30; for `Cc1cnc(Nc2ccc(N3CC[C@@H](N(C)C)C3)nc2)nc1Nc1ccc2oc(=O)[nH]c2c1` [II-89, (R)-5-(2-(6-(3-(dimethylamino)pyrrolidin-1-yl)pyridin-3-ylamino)-5-methylpyrimidin-4-ylamino)benzo[d]oxazol-2(3H)-one] it is more than 6.30.
On the same count and under the same terms, next, `Cc1cnc(Nc2ccc3c(c2)C(=O)N(C)CCCC3)nc1Nc1ccc2oc(=O)[nH]c2c1` [IV-14, 2-Methyl-9-[5-methyl-4-(2-oxo-2,3-dihydro-benzooxazol-5-ylamino)-pyrimidin-2-ylamino]-3,4,5,6-tetrahydro-2H-benzo[c]azocin-1-one]: more than 6.30; `CCCNC(C)c1cc(Nc2ncc(C)c(Nc3ccc4oc(=O)[nH]c4c3)n2)cc(OC)c1` (stereo not drawn) [Compound I-232, 5-(2-(3-methoxy-5-(1-(propylamino)ethyl)phenylamino)-5-methylpyrimidin-4-ylamino)benzo[d]oxazol-2(3H)-one]: more than 6.30; `Cc1cc(C)cc(Nc2ncc(C)c(Nc3cc(F)c4oc(=O)[nH]c4c3)n2)c1` [Compound I-488, 5-(2-(3,5-dimethylphenylamino)-5-methylpyrimidin-4-ylamino)-7-fluorobenzo[d]oxazol-2(3H)-one]: more than 6.30.
Same read-out and setting: next, `Cc1cnc(Nc2ccc(N3CCN(C(=O)OC(C)(C)C)C(C)C3)nc2)nc1Nc1ccc2oc(=O)[nH]c2c1` (stereo not drawn) [II-11, N4-(benzo[d]oxazol-2(3H)-on-5-yl)-N2-(6-(3-methyl-4-tert-butoxycarbonylpiperazin-1-yl)pyridin-3-yl)-5-methylpyrimidine-2,4-diamine]: more than 6.30.
`COc1cc(Nc2ncc(C)c(Nc3ccc4oc(=O)[nH]c4c3)n2)cc(C)c1F` [Compound I-432, 5-(2-(4-fluoro-3-methoxy-5-methylphenylamino)-5-methylpyrimidin-4-ylamino)benzo[d]oxazol-2(3H)-one]: the pIC50 was more than 6.30.
Take `Cc1cnc(Nc2ccc(N3CCNC(C)C3)nc2)nc1Nc1ccc2oc(=O)[nH]c2c1` (stereo not drawn) [II-12, N4-(benzo[d]oxazol-2(3H)-on-5-yl)-N2-(6-(3-methylpiperazin-1-yl)pyridin-3-yl)-5-methylpyrimidine-2,4-diamine]: the pIC50 was more than 6.30.
The same measure, in the same setting: next, `COc1ccc(Nc2ncc(C)c(Nc3ccc4oc(=O)[nH]c4c3)n2)cc1C(=O)N1CCOCC1` [Compound I-262, 5-(2-(4-methoxy-3-(morpholine-4-carbonyl)phenylamino)-5-methylpyrimidin-4-ylamino)benzo[d]oxazol-2(3H)-one]: more than 6.30; `COc1c(F)ccc(Nc2ncc(C)c(Nc3cc(C)c4oc(=O)[nH]c4c3)n2)c1F` [Compound I-507, 5-(2-(2,4-difluoro-3-methoxyphenylamino)-5-methylpyrimidin-4-ylamino)-7-methylbenzo[d]oxazol-2(3H)-one]: more than 6.30; `CC(=O)NC1CCN(c2ccc(Nc3ncc(C)c(Nc4ccc5oc(=O)[nH]c5c4)n3)cn2)C1` (stereo not drawn) [II-81, N-(1-(5-(5-methyl-4-(2-oxo-2,3-dihydrobenzo[d]oxazol-5-ylamino)pyrimidin-2-ylamino)pyridin-2-yl)pyrrolidin-3-yl)acetamide]: more than 6.30.
Still for that read-out and setting: next, `COc1cc(Nc2ncc(C)c(Nc3ccc4oc(=O)[nH]c4c3)n2)cc(C(=O)N2CCOCC2)c1` [Compound I-254, 5-(2-(3-methoxy-5-(morpholine-4-carbonyl)phenylamino)-5-methylpyrimidin-4-ylamino)benzo[d]oxazol-2(3H)-one]: more than 6.30.

Still in this assay, the particulars now being: tested under conditions described in Example 3 (IL-2 stimulated human primary T-cell proliferation); read-out: ability to inhibit JAK3 activity, IC50 range (Table V).
Regarding `COc1ccc(Nc2ncc(C)c(Nc3ccc4oc(=O)[nH]c4c3)n2)cc1C(F)(F)F` [Compound I-297, N2-(4-methoxy-3-trifluoromethyl)phenyl-5-methyl-N4-(2-oxo-2,3-dihydro-1,3-benzoxazol-5-yl)-2,4-pyrimidinediamine], the pIC50 is more than 6.30.
For the compound `Cc1cc(Nc2ncc(C)c(Nc3ccc4oc(=O)[nH]c4c3)n2)ccc1OC(F)F` [Compound I-387, N2-(4-difluoromethoxy-3-methyl)phenyl-5-methyl-N4-(2-oxo-2,3-dihydro-1,3-benzoxazol-5-yl)-2,4-pyrimidinediamine], the pIC50 was more than 6.30.
Still for that read-out and setting: the figure for `Cc1cnc(Nc2cccc(NS(C)(=O)=O)c2)nc1Nc1ccc2[nH]c(=O)oc2c1` [Compound I-102, N2-((3-methylsulfonylamino)phenyl)-N4-(2-oxo-2,3-dihydrobenzo[d]oxazol-6-yl)-5-methylpyrimidine-2,4-diamine] is more than 6.30; for `Cc1ccc(Nc2ncc(C)c(Nc3ccc4oc(=O)[nH]c4c3)n2)cc1S(N)(=O)=O` [Compound I-24, N4-(benzo[d]oxazol-2(3H)-on-5-yl)-N2-((3-aminosulfonyl-4-methyl)phenyl)-5-methylpyrimidine-2,4-diamine] it is more than 6.30.
On the same count and under the same terms, the figure for `Cc1cnc(Nc2cccc(C#N)c2)nc1Nc1ccc2[nH]c(=O)[nH]c2c1` [Compound I-28, N4-(benzimidazolin-2-on-5-yl)-N2-(3-cyanophenyl)-5-methylpyrimidine-2,4-diamine] is more than 6.30; for `COc1cccc(Nc2ncc(C)c(Nc3ccc4oc(=O)[nH]c4c3)n2)c1` [Compound I-337, N2-(3-methoxy)phenyl-5-methyl-N4-(2-oxo-2,3-dihydro-1,3-benzoxazol-5-yl)-2,4-pyrimidinediamine] it is more than 6.30.
Same read-out and setting: next, `Cc1cnc(Nc2cc(Cl)cc(OC(F)F)c2)nc1Nc1ccc2oc(=O)[nH]c2c1` [Compound I-495, N2-(3-chloro-5-difluoromethoxy)phenyl-5-methyl-N4-(2-oxo-2,3-dihydro-1,3-benzoxazol-5-yl)-2,4-pyrimidinediamine]: more than 6.30; `Cc1cnc(Nc2ccc(F)c(OC(C)(C)C(N)=O)c2)nc1Nc1ccc2oc(=O)[nH]c2c1` [Compound I-386, N2-[3-(1-aminocarbonyl-1-methyl)ethoxy-4-fluoro]phenyl-5-methyl-N4-(2-oxo-2,3-dihydro-1,3-benzoxazol-5-yl)-2,4-pyrimidinediamine]: more than 6.30.
Take “N4-(benzo[d]oxazol-2(3H)-on-5-yl)-N2-(2-(bicyclo[2.2.1]heptan-2-ylmethyl)isoindolin-5-yl)-5-methylpyrimidine-2,4-diamine [III-11]”: the pIC50 is more than 6.30.
